Earlier results, collected in US20230117831A1, “MULTI-FUNCTIONAL CHIMERIC MOLECULES” (THE BROAD INSTITUTE, INC., priority 2020, published 2023).
Like-named read-outs stand apart in the source and are kept apart here.

Key:
PKCalpha = PKCalpha (Homo sapiens, UniProt P17252); conditions: cited from earlier work
PKC beta = PKC beta (Homo sapiens, UniProt P05771); conditions: PKC beta; read-out: Kd; cited from earlier work
PKC gamma = PKC gamma (Homo sapiens, UniProt P05129); conditions: cited from earlier work
PKC delta = PKC delta (Homo sapiens, UniProt Q05655); conditions: PKC delta; read-out: Kd; cited from earlier work
PKC epsilon = target: T1, PKC epsilon (Homo sapiens, UniProt Q02156); conditions: PKC epsilon; read-out: Kd; cited from earlier work
T1 sequence (Q02156 1-737): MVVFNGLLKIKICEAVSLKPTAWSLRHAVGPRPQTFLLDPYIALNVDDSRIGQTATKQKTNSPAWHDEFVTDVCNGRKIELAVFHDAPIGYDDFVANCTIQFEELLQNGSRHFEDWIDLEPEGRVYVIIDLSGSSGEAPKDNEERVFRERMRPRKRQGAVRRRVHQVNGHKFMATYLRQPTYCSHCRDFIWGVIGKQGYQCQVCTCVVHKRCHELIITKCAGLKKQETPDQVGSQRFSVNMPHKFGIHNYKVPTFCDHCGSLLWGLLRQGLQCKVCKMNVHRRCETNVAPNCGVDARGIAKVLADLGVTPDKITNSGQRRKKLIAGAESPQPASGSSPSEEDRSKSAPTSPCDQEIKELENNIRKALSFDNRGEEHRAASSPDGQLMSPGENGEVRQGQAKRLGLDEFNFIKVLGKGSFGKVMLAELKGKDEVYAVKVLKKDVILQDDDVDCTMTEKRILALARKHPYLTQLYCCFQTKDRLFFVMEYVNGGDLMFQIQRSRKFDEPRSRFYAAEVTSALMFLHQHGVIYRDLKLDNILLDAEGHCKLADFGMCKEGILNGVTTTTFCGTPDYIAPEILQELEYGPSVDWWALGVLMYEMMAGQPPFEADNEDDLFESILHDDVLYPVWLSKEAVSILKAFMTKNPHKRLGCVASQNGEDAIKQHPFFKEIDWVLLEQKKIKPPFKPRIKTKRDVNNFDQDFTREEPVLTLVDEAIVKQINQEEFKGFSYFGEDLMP

PKC beta, sequence (P05771 whole entry): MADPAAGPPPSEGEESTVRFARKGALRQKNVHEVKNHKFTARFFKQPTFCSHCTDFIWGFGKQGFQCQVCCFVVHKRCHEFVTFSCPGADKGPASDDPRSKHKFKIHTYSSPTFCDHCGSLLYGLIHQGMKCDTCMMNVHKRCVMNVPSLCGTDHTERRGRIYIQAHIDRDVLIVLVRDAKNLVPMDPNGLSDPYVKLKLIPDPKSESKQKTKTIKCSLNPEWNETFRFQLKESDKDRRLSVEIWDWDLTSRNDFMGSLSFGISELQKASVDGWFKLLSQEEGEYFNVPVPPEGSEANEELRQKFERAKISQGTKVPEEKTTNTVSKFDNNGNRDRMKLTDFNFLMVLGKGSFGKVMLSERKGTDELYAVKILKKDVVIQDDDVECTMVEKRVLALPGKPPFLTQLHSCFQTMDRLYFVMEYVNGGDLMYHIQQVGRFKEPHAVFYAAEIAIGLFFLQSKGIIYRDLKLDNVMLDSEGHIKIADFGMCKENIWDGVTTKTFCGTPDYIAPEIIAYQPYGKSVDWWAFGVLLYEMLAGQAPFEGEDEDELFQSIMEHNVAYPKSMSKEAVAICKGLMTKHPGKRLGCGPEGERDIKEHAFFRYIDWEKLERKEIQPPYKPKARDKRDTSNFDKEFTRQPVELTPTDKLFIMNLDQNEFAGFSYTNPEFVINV
PKC delta, sequence (Q05655 whole entry): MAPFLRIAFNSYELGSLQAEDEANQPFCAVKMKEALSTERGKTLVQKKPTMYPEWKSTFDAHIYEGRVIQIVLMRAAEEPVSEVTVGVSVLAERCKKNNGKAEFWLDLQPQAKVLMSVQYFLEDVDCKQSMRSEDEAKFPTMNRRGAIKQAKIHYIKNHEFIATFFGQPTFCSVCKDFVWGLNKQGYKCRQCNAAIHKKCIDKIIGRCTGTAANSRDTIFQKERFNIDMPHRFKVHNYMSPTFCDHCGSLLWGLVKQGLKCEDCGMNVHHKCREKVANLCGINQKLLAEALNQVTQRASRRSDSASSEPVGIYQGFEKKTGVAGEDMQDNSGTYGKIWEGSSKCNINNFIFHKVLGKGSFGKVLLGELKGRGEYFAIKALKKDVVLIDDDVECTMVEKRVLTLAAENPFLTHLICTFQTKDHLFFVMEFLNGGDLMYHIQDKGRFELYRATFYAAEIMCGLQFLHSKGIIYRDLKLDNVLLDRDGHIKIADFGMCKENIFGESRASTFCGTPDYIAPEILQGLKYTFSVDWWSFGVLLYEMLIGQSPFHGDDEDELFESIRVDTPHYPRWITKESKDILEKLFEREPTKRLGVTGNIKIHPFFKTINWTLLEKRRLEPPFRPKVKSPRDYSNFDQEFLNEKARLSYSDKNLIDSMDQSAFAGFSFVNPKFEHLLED

CCCCCCCCCCc1ccc2c(c1)C[C@@H](CO)NC(=O)[C@H](C(C)C)N2C
Kd (PKCalpha): 0.0466 µM
Kd (PKC beta): 0.0582 µM
Kd (PKC gamma): 0.14 µM
Kd (PKC delta): 0.185 µM
Kd (PKC epsilon): 0.187 µM

CCCCCCCCCCc1cccc2c1C[C@@H](CO)NC(=O)[C@H](C(C)C)N2C
Kd (PKCalpha; PKC alpha, read-out: Kd): 0.513 µM
Kd (PKC beta): 0.309 µM
Kd (PKC gamma; PKC gamma, read-out: Kd): 0.409 µM
Kd (PKC delta): 0.169 µM
Kd (PKC epsilon): 0.06 µM

CCCCCCCCC#Cc1cccc2c1C[C@@H](CO)NC(=O)[C@H](C(C)C)N2C
Kd (PKCalpha; PKC alpha, read-out: Kd): 4.53 µM
Kd (PKC beta): 1.69 µM
Kd (PKC gamma; PKC gamma, read-out: Kd): > 10 µM
Kd (PKC delta): 2.1 µM
Kd (PKC epsilon): 2.56 µM

CC(C)C1C(=O)NC(CO)Cc2cc(NC(=O)C=CC=Cc3ccccc3)ccc2N1C (centres unmarked)
Kd (PKCalpha; PKC alpha, read-out: Kd): 0.0158 µM

CC(C)[C@H]1C(=O)N[C@H](CO)Cc2cc(NC(=O)CCCCc3ccccc3)ccc2N1C
Kd (PKCalpha; PKC alpha, read-out: Kd): 0.0342 µM

CC(C)[C@H]1C(=O)N[C@H](CO)Cc2cc(NC(=O)CCCCc3ccc(C(F)(F)F)cc3)ccc2N1C
Kd (PKCalpha): 0.0125 µM

CC(C)[C@H]1C(=O)N[C@H](CO)Cc2cc(NC(=O)CCCCc3cc(C(F)(F)F)cc(C(F)(F)F)c3)ccc2N1C
Kd (PKCalpha; PKC alpha, read-out: Kd): 0.0078 µM

CC(C)[C@H]1C(=O)N[C@H](CO)Cc2cc(NC(=O)CCCCc3ccc(/C=C/C(F)(F)C(F)(F)C(F)(F)C(F)(F)C(F)(F)C(F)(F)F)cc3)ccc2N1C
Kd (PKCalpha; PKC alpha, read-out: Kd): 0.0112 µM

CC(C)[C@H]1C(=O)N[C@H](CO)Cc2cc(NC(=O)CCCCc3ccc(CCC(F)(F)C(F)(F)C(F)(F)C(F)(F)C(F)(F)C(F)(F)F)cc3)ccc2N1C
Kd (PKCalpha; PKC alpha, read-out: Kd): 0.0092 µM

CC(C)[C@H]1C(=O)N[C@H](CO)Cc2ccccc2N1C
Kd (PKCalpha; PKC alpha, read-out: Kd): 0.334 µM

CCCCCCCCc1ccc2c3c(c[nH]c13)CC[C@@H](CO)NC(=O)[C@H](C(C)C)N2C
Kd (PKCalpha; PKC alpha, read-out: Kd): 0.0005 µM
Kd (PKC beta): 0.0004 µM
Kd (PKC gamma; PKC gamma, read-out: Kd): 0.0012 µM
Kd (PKC delta): 0.0008 µM
Kd (PKC epsilon): 0.001 µM

CCCCCCCCC#Cc1ccccc1-c1ccc2c(c1)N(C)[C@@H](C(C)C)C(=O)NC(CO)C2 (some centres unmarked)
Kd (PKCalpha; PKC alpha, read-out: Kd): 0.0036 µM

CCCCC#Cc1ccccc1-c1ccc2c(c1)N(C)[C@@H](C(C)C)C(=O)NC(CO)C2 (some centres unmarked)
Kd (PKCalpha; PKC alpha, read-out: Kd): 0.0031 µM

CCCCCCCCC#Cc1cccc(-c2ccc3c(c2)C[C@@H](CO)NC(=O)[C@H](C(C)C)N3C)c1
Kd (PKCalpha; PKC alpha, read-out: Kd): 0.309 µM

CCCCCCCCC#Cc1cccc(-c2ccc3c(c2)N(C)[C@@H](C(C)C)C(=O)N[C@H](CO)C3)c1
Kd (PKCalpha; PKC alpha, read-out: Kd): 0.0059 µM

CCCCC#Cc1cccc(-c2ccc3c(c2)N(C)[C@@H](C(C)C)C(=O)N[C@H](CO)C3)c1
Kd (PKCalpha; PKC alpha, read-out: Kd): 0.003 µM

CCCCCCCCC#Cc1ccc(-c2ccc3c(c2)C[C@@H](CO)NC(=O)[C@H](C(C)C)N3C)cc1
Kd (PKCalpha; PKC alpha, read-out: Kd): 0.703 µM

CCCCCCCCC#Cc1ccc(-c2ccc3c(c2)C[C@@H](CO)NC(=O)[C@H](C(C)C)N3C)s1
Kd (PKCalpha; PKC alpha, read-out: Kd): 0.396 µM

CCCCCCCCC#Cc1ccc(-c2ccc3c(c2)N(C)[C@@H](C(C)C)C(=O)N[C@H](CO)C3)s1
Kd (PKCalpha; PKC alpha, read-out: Kd): 0.025 µM
